pIC50: −log10 of the molar value.
Experiments:
platelets = experiment: effect of antiplatelet compounds on DOX-induced platelet aggregation; assay type: cell-based; conditions: reagent at recommended concentration
HepG2 cells = experiment: receptor mediated binding between CPP or FPH and HepG2 cells with inhibitors / blocking mabs; assay type: cell-based, human; conditions: inhibitor / blocking mab tested, Table 7
Protocol: Receptor mediated binding between CPP or FPH with HepG2 cells was investigated by inhibiting either a platelet receptor or a HepG2 receptor. Pooled apheresis platelets were incubated with 50 μM CFDA-Se for 60 minutes at room temperature then acidified to pH of 6.6-6.8 with citric acid. CPP and FPH were then created as disclosed in Example 1 but without doxorubicin. Untreated HepG2 cells served as negative control groups. HepG2 cells were seeded at a density of 10^5 cells in a 12-well plate (NuncTM Cell-Culture Treated Multidishes, catalog no: 150628) After incubation for 24 hours, the original medium was […] hours with fresh 0.5% FBS DMEM (ATCC-formulated Eagle's Minimum Essential Medium, catalog No. 30-2003). To determine the effect of platelet receptor inhibition on the binding between CPP/FPH and HepG2 cells first both CPP and FPH were incubated with tirofiban to block the GpIIb/IIIa receptor. Then the HepG2 cells were supplemented with tirofiban treated CPP, tirofiban treated FPH, untreated CPP, or untreated FPH at an equivalent platelet count of 0.3×10^6 platelets/μl. The cells were then washed with cold PBS three times, harvested by a scraper, and then suspended in PBS. The fluorescence intensity was determined by flow cytometry with the FITC channel. Approximately 10,0000 events for each sample was measured to assess the surface binding between the HepG2 cells and tirofiban treated CPP or FPH. To determine the effect of HepG2 receptor inhibition on the binding between CPP/FPH and HepG2 cells, first HepG2 cells were treated with either anti-podoplanin blocking monoclonal antibody or phagocytosis (wortmannin) inhibitor for 30 minutes. Then the HepG2 cells were incubated with either CPP or FPH. The HepG2 cells were washed with cold PBS three times, harvested by a scraper, and then suspended in PBS. The fluorescence intensity was determined by flow cytometry with the FITC channel. Approximately 10,0000 events for each sample was measured to assess the surface binding between the HepG2 cells CPP or FPH. […]

GPIIb/IIIa = GPIIb/IIIa (Homo sapiens, UniProt P05106+P08514); conditions: printed as recommended concentration; source PMID: 9700979; cited from earlier work
GPIIb/IIIa, sequence (P08514 32-887 limits assumed): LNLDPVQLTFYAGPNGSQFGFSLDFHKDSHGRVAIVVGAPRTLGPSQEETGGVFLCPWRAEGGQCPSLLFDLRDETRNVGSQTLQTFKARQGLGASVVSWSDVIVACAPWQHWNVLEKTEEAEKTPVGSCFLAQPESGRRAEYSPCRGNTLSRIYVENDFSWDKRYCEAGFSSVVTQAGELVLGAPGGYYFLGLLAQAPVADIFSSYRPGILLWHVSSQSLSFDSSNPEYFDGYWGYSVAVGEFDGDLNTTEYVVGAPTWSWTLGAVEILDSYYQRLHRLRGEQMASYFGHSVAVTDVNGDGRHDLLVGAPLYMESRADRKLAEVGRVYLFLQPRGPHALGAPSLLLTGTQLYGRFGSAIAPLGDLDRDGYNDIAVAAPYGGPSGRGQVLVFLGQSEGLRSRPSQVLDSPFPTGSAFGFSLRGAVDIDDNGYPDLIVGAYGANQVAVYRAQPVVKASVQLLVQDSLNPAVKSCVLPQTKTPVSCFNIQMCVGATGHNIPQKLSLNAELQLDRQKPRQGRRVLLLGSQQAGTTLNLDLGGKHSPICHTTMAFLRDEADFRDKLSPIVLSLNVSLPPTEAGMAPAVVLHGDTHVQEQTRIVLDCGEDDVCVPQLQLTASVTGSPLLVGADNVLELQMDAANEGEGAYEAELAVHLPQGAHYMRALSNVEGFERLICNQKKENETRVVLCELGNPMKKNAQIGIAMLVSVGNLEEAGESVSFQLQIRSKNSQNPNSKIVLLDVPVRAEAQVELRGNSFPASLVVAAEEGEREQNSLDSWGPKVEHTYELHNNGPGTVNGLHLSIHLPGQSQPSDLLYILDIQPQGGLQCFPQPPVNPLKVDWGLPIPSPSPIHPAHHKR
GPIIb/IIIa, sequence (P08514 891-1039 partner limits assumed): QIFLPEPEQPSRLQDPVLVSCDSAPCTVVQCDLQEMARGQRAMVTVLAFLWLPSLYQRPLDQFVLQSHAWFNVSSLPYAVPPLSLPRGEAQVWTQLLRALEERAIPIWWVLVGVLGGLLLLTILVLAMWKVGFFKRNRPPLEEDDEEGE
GPIIb/IIIa, sequence (P05106 27-788): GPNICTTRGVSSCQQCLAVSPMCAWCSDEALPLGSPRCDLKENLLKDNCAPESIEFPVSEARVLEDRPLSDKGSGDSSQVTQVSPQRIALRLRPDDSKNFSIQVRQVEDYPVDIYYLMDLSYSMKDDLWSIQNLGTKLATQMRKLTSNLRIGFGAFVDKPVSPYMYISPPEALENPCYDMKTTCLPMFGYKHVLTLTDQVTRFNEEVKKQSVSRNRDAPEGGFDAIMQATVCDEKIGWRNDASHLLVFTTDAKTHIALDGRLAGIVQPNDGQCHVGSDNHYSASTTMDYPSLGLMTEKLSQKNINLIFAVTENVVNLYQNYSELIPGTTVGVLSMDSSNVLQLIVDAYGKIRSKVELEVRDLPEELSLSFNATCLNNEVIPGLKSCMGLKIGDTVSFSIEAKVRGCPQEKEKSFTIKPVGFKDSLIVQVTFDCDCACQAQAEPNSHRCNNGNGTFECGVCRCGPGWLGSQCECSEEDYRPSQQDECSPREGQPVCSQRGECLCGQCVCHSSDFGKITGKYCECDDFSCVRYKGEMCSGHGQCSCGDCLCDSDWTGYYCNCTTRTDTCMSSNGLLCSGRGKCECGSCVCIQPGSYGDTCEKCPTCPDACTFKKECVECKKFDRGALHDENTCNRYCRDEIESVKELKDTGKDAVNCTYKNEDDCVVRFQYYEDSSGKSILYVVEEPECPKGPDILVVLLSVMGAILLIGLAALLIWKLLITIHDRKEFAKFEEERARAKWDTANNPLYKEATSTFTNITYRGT

Compound: CC1(C)CC(NC(=O)C[P+](c2ccccc2)(c2ccccc2)c2ccccc2)CC(C)(C)N1[O] [MitoTEMPO]
- Max Platelet Count (Normalized to Untreated) (platelets; 1.2 mM DOX): 37%

Compound: CCCCS(=O)(=O)N[C@@H](Cc1ccc(OCCCCC2CCNCC2)cc1)C(=O)O [Tirofiban]
- change of CPP/FPH binding to HepG2 cells in comparison to control (HepG2 cells): Significance
- Max Platelet Count (Normalized to Untreated) (platelets; 0.6 mM DOX): 73%

Compound: CSc1nc(N)c2ncn([C@@H]3O[C@H](COP(=O)(O)OP(=O)(O)O)[C@@H](O)[C@H]3O)c2n1 [MeSADP]
- Max Platelet Count (Normalized to Untreated) (platelets; 0.5 mg/mL DOX): 33%
- Max Platelet Count (Normalized to Untreated) (platelets; 1 mg/mL DOX): 10%

Compound: CC(=O)N[C@@H](CS)C(=O)O [N-Acetylcysteine]
- Max Platelet Count (Normalized to Untreated) (platelets; 0.6 mM DOX): 73%

Compound: O=c1c(-c2ccc(O)cc2)coc2cc(O)cc(O)c12 [Genistein]
- change of CPP/FPH binding to HepG2 cells in comparison to control (HepG2 cells): No Significance

Compound: CN(C)CCCN1c2ccccc2Sc2ccc(Cl)cc21 [Chlorpromazine]
- change of CPP/FPH binding to HepG2 cells in comparison to control (HepG2 cells): No Significance

Compound: COC(=O)/C=C1/SC(=NC(=O)c2ccc(Cl)cc2Cl)N(c2ccc(Cl)cc2)C1=O [FR171113]
- Max Platelet Count (Normalized to Untreated) (platelets; 0.5 mg/mL DOX): 51%
- Max Platelet Count (Normalized to Untreated) (platelets; 1 mg/mL DOX): 16%

Compound: Cl.Cl.Cl.N=C(N)c1ccc(N2CCN(C3CCN(CC(=O)O)CC3)CC2)cc1 [GR144053]
- pIC50 (GPIIb/IIIa): 7.43
- Max Platelet Count (Normalized to Untreated) (platelets; 0.5 mg/mL DOX): 83%
- Max Platelet Count (Normalized to Untreated) (platelets; 1 mg/mL DOX): 42%

Compound: CC(=O)Oc1ccccc1C(=O)O [Aspirin (ASA), Aspirin]
- Max Platelet Count (Normalized to Untreated) (platelets; 0.5 mg/mL DOX): 52%
- Max Platelet Count (Normalized to Untreated) (platelets; 1 mg/mL DOX): 15%

Compound: Nc1c(S(=O)(=O)O)cc(Nc2ccc(Nc3ccccc3)c(S(=O)(=O)O)c2)c2c1C(=O)c1ccccc1C2=O [PSB 0739]
- Max Platelet Count (Normalized to Untreated) (platelets; 0.5 mg/mL DOX): 26%
- Max Platelet Count (Normalized to Untreated) (platelets; 1 mg/mL DOX): 18%

Compound: CSCCNc1nc(SCCC(F)(F)F)nc2c1ncn2[C@@H]1O[C@H](COP(=O)(O)OP(=O)(O)C(Cl)(Cl)P(=O)(O)O)[C@@H](O)[C@H]1O [Cangrelor]
- Max Platelet Count (Normalized to Untreated) (platelets; 0.5 mg/mL DOX): 47%
- Max Platelet Count (Normalized to Untreated) (platelets; 1 mg/mL DOX): 26%
